Measured values as given in patent publication US6774143B1, “Method for treating cells resistant to antineoplastic agents” (Novartis AG, priority 2003, dated 2004).
Where two headings read alike, the source gives them in different places.

Test system: PTX-22 cells
Experiment: Antiproliferative assay (MTS)
Format: cell-based, human
Method: A549, a human non-small cell lung carcinoma and MDA-MB-435, a human breast carcinoma, used in this study are obtained from the American Type Culture Collection (ATCC, Rockville, Md., USA). MDA-MB-435 cells are maintained in MEM containing 10% FBS, 1% sodium pyruvate, 1% MEM non-essential amino acids, and 15 mM HEPES (pH=7.4). A549 cells are maintained in RPMI 1640 containing 10% FBS. 1A9, a single-cell clone of the human ovarian carcinoma cell line A2780 and PTX22, the paclitaxel-resistant subline, used in this stdy are obtained from M. Wartman (Novartis Pharmauticals). 1A9 cells and PTX22 cells are maintained in RPMI 1640 supplemented with 10% FBS. PTX22 maintenance media also contained 15 ng/mL paclitaxel and 5 μg/mL verapamil. Drug is removed from the media for 5-7 days before use in an experiment. All maintenance media contained 100 units/mL penicillin and 100 μg/mL streptomycin.
Cell lines are trypsinized and counted using a Coulter counter. Cells were plated in 96 well plates (190 μL/well) at the following densities: 1,000 cells/well for A549 and 3,000 cells/well for MDA-MB-435. The number of cells plated results in cell densities of 75-90% confluence by the time of harvest. Plates are seeded on day 0. On day 1 test compounds are added to triplicate wells in a final volume of 10 μL media. Initial cell density for each cell line is measured on day 1 by adding 10 μL MTS mixture (see below), incubating for 4 h and recording absorbance at 490 nm (A490). Two or three days after test compound addition, 10 μL/well of MTS mixture is added to the test plates and A490 was read 4 h later. A490 values for wells containing cells are corrected for media absorbance, then normalized to initial density readings to determine percent net growth. Percent net growth is calculated as (A490+drug−A490 initial)/(A490—drug—A490 initial). Graphs of percent net growth as a function of compound concentration are used to calculate concentrations resulting in 50% growth inhibition (IC50). MTS mixture is prepared fresh on day of addition to cell plates at a ratio of 10 μL of a 0.92 mg/mL solution of phenazine methosulfate (PMS) to 190 μL of a 2 mg/mL solution of MTS (3-(4,5-dimethylthiazol-2-yl)-5-(3-carboxymethoxyphenyl)-2-(4-sulfophenyl)-2H-tetrazolium, inner salt). PMS and MTS solutions are prepared in buffered saline containing 0.2 g/L KCl, 8.0 g/L NaCl, 0.2 g/L KH2PO4, 1.15 g/L Na2HPO4, 133 mg/L CaCl2.2H2O, 100 mg/L MgCl2.6H2O, (pH=7.35) and stored as foil-wrapped aliquots at −20° C. Test compounds are prepared as stock solutions in DMSO. Test compound dilutions are made in 2% DMSO/cell maintenance media and diluted into assay plates to give 0.1% DMSO final in all wells.

| SMILES | IC50 (Homo sapiens, 72 h, read-out: 72 hour IC50, PTX-22 cells, single value given) | IC50 (Homo sapiens, 72 h, read-out: IC50 cell proliferation, PTX-22 cells, 72 h exposure, two independent experiments) | IC50 (read-out: IC50 cell proliferation, PTX-22 cells, 72 h exposure, two independent experiments) | IC50 (Homo sapiens, 72 h, PTX-22 cells, single value given, read-out: 72 hour IC50) | fold less sensitive, PTX-22 versus 1A9 (from the 72 hour IC50 values) |
| --- | --- | --- | --- | --- | --- |
| C=C/C=C\[C@H](C)[C@H](OC(N)=O)[C@@H](C)[C@H](O)[C@@H](C)C/C(C)=C\[C@H](C)[C@@H](O)[C@@H](C)/C=C\[C@@H](O)C[C@@H]1OC(=O)[C@H](C)[C@@H](O)[C@H]1C [discodermolide, (+)-Discodermolide] | 0.03 µM | 0.023 µM | 0.037 µM | – | – |
| CC(=O)O[C@H]1C(=O)[C@@]2(C)[C@H]([C@H](OC(=O)c3ccccc3)[C@]3(O)C[C@H](OC(=O)[C@H](O)[C@@H](NC(=O)c4ccccc4)c4ccccc4)C(C)=C1C3(C)C)[C@]1(OC(C)=O)CO[C@@H]1C[C@@H]2O [paclitaxel, reference compound] | – | – | – | 0.08 µM | 13 fold |
